Results on 2 compounds are retold here after article PMC8359310 (British Journal of Clinical Pharmacology, 2020).

As usually defined, the half-life is the time needed for the level to fall by half in the phase considered. As a reminder, the Tmax is the time from dosing to the highest level.

A short description of data set [1]: Clinical DDI study: plasma pharmacokinetics of probe drugs. The conditions noted are these: for increase of AUCinf on coadministration of capmatinib / increase of AUClast on coadministration of capmatinib / increase of Cmax on coadministration of capmatinib: compared to probe drug alone; for AUC(0-inf) / AUC(0-t) / Cmax / half-life / Tmax: human, in vivo; for AUC(0-inf): AUCinf; for AUC(0-t): AUClast; for half-life: T1/2, geo‐mean (geo‐CV%); for Tmax: median (min, max); for AUCinf geo‐mean ratio (90% CI) / AUClast geo‐mean ratio (90% CI) / Cmax geo‐mean ratio (90% CI): probe drug + capmatinib vs probe drug alone.

For data set [2] the following is noted: cited from earlier work.
The mark [3] stands for this setting: adjusted geo‐mean, probe drug + capmatinib, linear mixed effects model.
[4] abbreviates: adjusted geo‐mean, probe drug alone, linear mixed effects model.
The mark [5] stands for this setting: geo‐mean (geo‐CV%), probe drug + capmatinib 400 mg twice daily, Day 22, plasma.
The mark [6] stands for this setting: geo‐mean (geo‐CV%), probe drug alone, Day 1, plasma.
[7] abbreviates: probe drug + capmatinib 400 mg twice daily, Day 22.

Consider `C[C@H]1O[C@@H](O[C@H]2[C@@H](O)C[C@H](O[C@H]3[C@@H](O)C[C@H](O[C@H]4CC[C@@]5(C)[C@H](CC[C@@H]6[C@@H]5C[C@@H](O)[C@]5(C)[C@@H](C7=CC(=O)OC7)CC[C@]65O)C4)O[C@@H]3C)O[C@@H]2C)C[C@H](O)[C@@H]1O` [digoxin], for which, in data set [1], the “increase of AUCinf on coadministration of capmatinib” value was 47%, the “increase of AUClast on coadministration of capmatinib” value stood at 63% and the “increase of Cmax on coadministration of capmatinib” value was 74%. Also, in data set [1] (setting [3]), the AUC(0-inf) is 32.9 ng·h/mL and the AUC(0-t) amounted to 23.8 ng·h/mL. Moreover, in data set [1] (setting [4]), the AUC(0-inf) was found to be 22.4 ng·h/mL, the AUC(0-t) came out at 14.6 ng·h/mL and the Cmax turned out to be 1.12 ng/mL. In addition, the AUC(0-t) in data set [1] (setting [5]) was 23.8 ng·h/mL. Besides, in data set [1] (setting [6]), the AUC(0-t) is 14.6 ng·h/mL and the Cmax was determined as 1.12 ng/mL. The half-life in data set [1] (setting [7]) was 61.4 h. In data set [1] (probe drug alone, Day 1), the half-life was 47 h and the Tmax was 1.07 h. Moreover, the T1/2 in data set [2] (healthy subjects with normal renal function) is 36 to 48 h. Besides, the “time of peak serum concentrations” value in data set [2] (oral administration) was 1 to 3 h.
On to `CC(C)c1nc(N(C)S(C)(=O)=O)nc(-c2ccc(F)cc2)c1/C=C/[C@@H](O)C[C@@H](O)CC(=O)O` [rosuvastatin], for which, in data set [1], the “increase of AUCinf on coadministration of capmatinib” value is 108%; the “increase of AUClast on coadministration of capmatinib” value is listed as 103%; the “increase of Cmax on coadministration of capmatinib” value turned out to be 204%; the “AUCinf geo‐mean ratio (90% CI)” value was 2.08 (1.56, 2.76). Further, in data set [1], the “AUClast geo‐mean ratio (90% CI)” value was 2.03 (1.61, 2.56) and the “Cmax geo‐mean ratio (90% CI)” value is given as 3.04 (2.36, 3.92). In data set [1] (setting [3]), the AUC(0-inf) is 156 ng·h/mL, the AUC(0-t) was determined as 144 ng·h/mL and the Cmax was 23.5 ng/mL. In data set [1] (setting [4]), this compound yielded an AUC(0-inf) of 75.2 ng·h/mL, an AUC(0-t) of 71 ng·h/mL and a Cmax of 7.72 ng/mL. Moreover, in data set [1] (setting [5]), the AUC(0-t) stood at 144 ng·h/mL and the Cmax was 23.5 ng/mL. Also, in data set [1] (setting [6]), the AUC(0-t) stood at 71 ng·h/mL and the Cmax amounted to 7.72 ng/mL. For the same compound, in data set [1] (probe drug alone, Day 1), the half-life is 22 h and the Tmax came out at 2.04 h. The Tmax in data set [1] (setting [7]) came out at 1.55 h. For the same compound, in data set [1] (listed as Rosuvastatin), the “AUCinf geo‐mean ratio (90% CI)” value is listed as 2.08 (1.56–2.76), the “AUClast geo‐mean ratio (90% CI)” value was 2.03 (1.61–2.56) and the “Cmax geo‐mean ratio (90% CI)” value is on record as 3.04 (2.36–3.92).
